Assay results: patent US20110280849A1, “TUMOR SUPPRESSION USING HUMAN PLACENTA-DERIVED INTERMEDIATE NATURAL KILLER CELLS AND IMMUNOMODULATORY COMPOUNDS” (Anthrogenesis Corporation, priority 2010, published 2011)

How the values were obtained:
[1] = tested on: NK cells; assay: Flow cytometry of GZMB-positive NK cells after pomalidomide; format: cell-based, human
[2] = tested on: cultured PINK cells; assay: qRT-PCR gene expression in lenalidomide- or pomalidomide-treated cultured PINK cells
Source text: Quantitative real-time (qRT-PCR) analysis. Isolated RNA can then be used for cDNA synthesis using TAQMAN® Reverse Transcription Reagents (Applied Biosystems, Cat #N8080234) followed by real-time PCR analysis by the 7900HT Fast Real-Time PCR System using Human Immune Array (Applied Biosystems, Cat #4370573) and Human MicroRNA Array (Applied Biosystems, Cat #4384792).
The paired t-test is used to determine if fold changes are equal in lenalidomide-treated and -untreated samples. […] The paired t-test is used to determine if fold changes are equal in treated and untreated samples.

With `Nc1cccc2c1C(=O)N(C1CCC(=O)NC1=O)C2=O` (racemic) [pomalidomide, 4-amino-2-[(3RS)-2,6-dioxopiperidin-3-yl)-1H-isoindole-1,3(2H)-dione] the “increase in percentage of GZMB-positive NK cells” value [1] was 25% and the “increase in granzyme B (GZMB) gene expression” value [2] was 60%±1.7%.
